Where two headings read alike, the source gives them in different places. Marks after values point to notes of the source that are not given here.
Assay: Phase I DDI study Part 1: tazemetostat plasma PK alone and with itraconazole (noncompartmental analysis)
Assay type: in vivo, human
Settings: for RacAUC (AUC0‐12h accumulation ratio), geoLSM (90% CI) / RacCmax (Cmax accumulation ratio), geoLSM (90% CI): tazemetostat 400 mg alone, Day 15 versus Day 1; for AUC / AUC(0-t) / Cmax / half-life / Tmax: human; for Tmax: read-out: tmax, median (range)
From the text: This was a Phase I, multicenter, open‐label, 2‐part study encompassing a fixed‐sequence design that aimed to characterize the PK of tazemetostat when administered as single and twice‐daily oral doses alone or in combination with either itraconazole (Part 1) or rifampin (Part 2). Secondary objectives were to evaluate the safety profile of tazemetostat when coadministered with either itraconazole (Part 1) or rifampin (Part 2).
Part 1 of the study evaluated the DDI between tazemetostat and itraconazole. On the mornings of Days 1 and 15, patients received a single dose of tazemetostat 400 mg orally. On Days 3‐14, patients received tazemetostat 400 mg twice daily (morning and evening). On Days 18‐20, patients received itraconazole 200 mg orally once daily in the morning. On Days 21‐35, tazemetostat 400 mg twice daily was coadministered in the morning with a single dose of itraconazole 200 mg. On Day 36, patients received a single dose of tazemetostat 400 mg coadministered in the morning with a single dose of itraconazole 200 mg. On Days 37 and 38, patients received a single dose of itraconazole 200 mg (Figure 1A). Throughout Part 1, administration of itraconazole occurred 1 hour after a meal.
In Part 1, plasma concentrations of tazemetostat following tazemetostat dosing on Days 1, 15, 21, and 36 were quantified for PK analyses before dosing (0 hour), and at 0.5, 1, 1.5, 2, 4, 6, 8, 12, 24 (Days 21‐22), 36, 48 (Days 1‐3), and up to 72 hours after dosing (Days 15‐18 and Days 36‐39).
Plasma concentrations of tazemetostat, over the ranges of 1.00‐2000 ng/mL, were quantified by a fully validated liquid chromatography with tandem mass spectrometric detection analytical method. Samples that had no detectable peak or had the calculated concentration <1.00 ng/mL were reported as below the lower limit of quantification. Tazemetostat analysis consisted of protein precipitation extraction and separation using mobile phases of 100 mM ammonium formate/water (1:9 v/v) (mobile phase A) and 100 mM ammonium formate/acetonitrile (1:9 v/v) (mobile phase B). Detection was achieved using an API‐5500 mass spectrometer (AB Sciex) using electrospray ionization (positive‐ion mode) in the multiple reaction monitoring mode. The multiple reaction monitoring mode m/z transitions monitored were […] for tazemetostat and the dwell time was set at 300 milliseconds.
Plasma concentration‐time data for tazemetostat were analyzed by noncompartmental analysis using the validated software program Phoenix WinNonlin Professional Version 8.3 (Certara Inc., Mountain View, CA).

[1] = Part 1, single dose with itraconazole vs alone, Day 21 versus Day 1
[2] = Part 1, single dose with itraconazole vs alone, Day 21 versus Day 1, listed as tazemetostat
[3] = Part 1, steady state with itraconazole vs alone, Day 36 versus Day 15
[4] = Part 1, steady state with itraconazole vs alone, Day 36 versus Day 15, listed as tazemetostat
[5] = single doses, Day 21/Day 1, compared with tazemetostat alone
[6] = twice‐daily dosing, steady state, Day 36/Day 15

In the case of `CCN(c1cc(-c2ccc(CN3CCOCC3)cc2)cc(C(=O)NCc2c(C)cc(C)[nH]c2=O)c1C)C1CCOCC1` [Tazemetostat], the “AUC0‐12h ratio, geoLSM (90% CI)” value [1] is reported as 3.12 (2.44‐3.99) ^b, the “Cmax ratio, geoLSM (90% CI)” value [1] is reported as 2.00 (1.60‐2.48) ^b and the “AUC0‐12h ratio, geoLSM (90% CI)” value [2] is reported as 3.12. For the same molecule, the “Cmax ratio, geoLSM (90% CI)” value [2] was 2.00, the “AUC0‐12h ratio, geoLSM (90% CI)” value [3] was 2.47 (2.02‐3.02) ^c and the “Cmax ratio, geoLSM (90% CI)” value [3] was 1.86 (1.49‐2.31) ^c. For the same molecule, the “AUC0‐12h ratio, geoLSM (90% CI)” value [4] was 2.47, the “Cmax ratio, geoLSM (90% CI)” value [4] was 1.86 and the “RacAUC (AUC0‐12h accumulation ratio), geoLSM (90% CI)” value (Part 1) was 0.842 (0.726‐0.976) ^e. For the same molecule, the “RacCmax (Cmax accumulation ratio), geoLSM (90% CI)” value (Part 1) was 0.771 (0.662‐0.897) ^e, the “RacAUC (AUC0‐12h accumulation ratio), geoLSM (90% CI)” value (Part 1, listed as tazemetostat) was 0.842 and the “RacCmax (Cmax accumulation ratio), geoLSM (90% CI)” value (Part 1, listed as tazemetostat) was 0.771. The “AUC0‐12 h, GeoMean (CV%)” value (Part 1, tazemetostat 400 mg multiple dosing with itraconazole 200 mg once daily, Day 36, plasma) was 4530 (64.5) ng•h/mL, the “t1/2, GeoMean (CV%)” value (Part 1, tazemetostat 400 mg single dose with itraconazole 200 mg once daily, Day 21, plasma, estimated over a 12‐hour dosing interval) was 2.86 (28.9) ^a hour and the AUC (plasma, oral, 400 mg, Part 1, tazemetostat 400 mg twice daily alone, multiple dosing, Day 15, plasma, read-out: AUC0‐12 h, GeoMean (CV%)) was 1830 ng·h/mL. It also gave an AUC (plasma, oral, 400 mg, Part 1, tazemetostat 400 mg twice daily alone, multiple dosing, Day 15, plasma, read-out: AUC0‐12 h, mean (SD)) of 1960 ng·h/mL, an AUC(0-t) (plasma, oral, 400 mg, Part 1, tazemetostat 400 mg twice daily alone, multiple dosing, Day 15, plasma, read-out: AUClast, GeoMean (CV%)) of 2200 ng·h/mL and an AUC(0-t) (plasma, oral, 400 mg, Part 1, tazemetostat 400 mg twice daily alone, multiple dosing, Day 15, plasma, read-out: AUClast, mean (SD)) of 2340 ng·h/mL. The Cmax (plasma, oral, 400 mg, Part 1, tazemetostat 400 mg twice daily alone, multiple dosing, Day 15, plasma, read-out: Cmax, GeoMean (CV%)) was 543 ng/mL, the Cmax (plasma, oral, 400 mg, Part 1, tazemetostat 400 mg twice daily alone, multiple dosing, Day 15, plasma, read-out: Cmax, mean (SD)) was 643 ng/mL and the half-life (plasma, oral, 400 mg, Part 1, tazemetostat 400 mg twice daily alone, multiple dosing, Day 15, plasma, read-out: t1/2, GeoMean (CV%) (converted)) was 8.01 h. It also gave a half-life (plasma, oral, 400 mg, Part 1, tazemetostat 400 mg twice daily alone, multiple dosing, Day 15, plasma, read-out: t1/2, mean (SD) (converted)) of 8.62 h, a Tmax (plasma, oral, 400 mg, Part 1, tazemetostat 400 mg twice daily alone, multiple dosing, Day 15, plasma) of 1.27 h and an AUC (plasma, oral, Part 1, tazemetostat 400 mg multiple dosing with itraconazole 200 mg once daily, Day 36, plasma, read-out: AUC0‐12 h, mean (SD)) of 5160 ng·h/mL. It also gave an AUC(0-t) (plasma, oral, Part 1, tazemetostat 400 mg multiple dosing with itraconazole 200 mg once daily, Day 36, plasma, read-out: AUClast, GeoMean (CV%)) of 5750 ng·h/mL, an AUC(0-t) (plasma, oral, Part 1, tazemetostat 400 mg multiple dosing with itraconazole 200 mg once daily, Day 36, plasma, read-out: AUClast, mean (SD)) of 6490 ng·h/mL and a Cmax (plasma, oral, Part 1, tazemetostat 400 mg multiple dosing with itraconazole 200 mg once daily, Day 36, plasma, read-out: Cmax, GeoMean (CV%)) of 1010 ng/mL. For the same molecule, the Cmax (plasma, oral, Part 1, tazemetostat 400 mg multiple dosing with itraconazole 200 mg once daily, Day 36, plasma, read-out: Cmax, mean (SD)) was 1190 ng/mL, the half-life (plasma, oral, Part 1, tazemetostat 400 mg multiple dosing with itraconazole 200 mg once daily, Day 36, plasma, read-out: t1/2, GeoMean (CV%) (converted)) was 11.9 h and the half-life (plasma, oral, Part 1, tazemetostat 400 mg multiple dosing with itraconazole 200 mg once daily, Day 36, plasma, read-out: t1/2, mean (SD) (converted)) was 12.9 h. It also gave a Tmax (plasma, oral, Part 1, tazemetostat 400 mg multiple dosing with itraconazole 200 mg once daily, Day 36, plasma) of 1.49 h, a half-life (plasma, oral, Part 1, tazemetostat 400 mg single dose with itraconazole 200 mg once daily, Day 21, plasma, estimated over a 12‐hour dosing interval, read-out: t1/2, mean (SD) (converted)) of 2.95 h and an AUC (plasma, oral, Part 1, tazemetostat 400 mg single dose with itraconazole 200 mg once daily, Day 21, plasma, read-out: AUC0‐12 h, GeoMean (CV%)) of 6790 ng·h/mL. It also gave an AUC (plasma, oral, Part 1, tazemetostat 400 mg single dose with itraconazole 200 mg once daily, Day 21, plasma, read-out: AUC0‐12 h, mean (SD)) of 8000 ng·h/mL, an AUC(0-t) (plasma, oral, Part 1, tazemetostat 400 mg single dose with itraconazole 200 mg once daily, Day 21, plasma, read-out: AUClast, GeoMean (CV%)) of 6720 ng·h/mL and an AUC(0-t) (plasma, oral, Part 1, tazemetostat 400 mg single dose with itraconazole 200 mg once daily, Day 21, plasma, read-out: AUClast, mean (SD)) of 7930 ng·h/mL. The Cmax (plasma, oral, Part 1, tazemetostat 400 mg single dose with itraconazole 200 mg once daily, Day 21, plasma, read-out: Cmax, GeoMean (CV%)) was 1400 ng/mL, the Cmax (plasma, oral, Part 1, tazemetostat 400 mg single dose with itraconazole 200 mg once daily, Day 21, plasma, read-out: Cmax, mean (SD)) was 1640 ng/mL and the Tmax (plasma, oral, Part 1, tazemetostat 400 mg single dose with itraconazole 200 mg once daily, Day 21, plasma) was 1.53 h. For the same molecule, the AUC (plasma, po, 400 mg, Part 1, tazemetostat 400 mg oral single dose alone, Day 1, plasma, read-out: AUC0‐12 h, GeoMean (CV%)) was 2180 ng·h/mL, the AUC (plasma, po, 400 mg, Part 1, tazemetostat 400 mg oral single dose alone, Day 1, plasma, read-out: AUC0‐12 h, mean (SD)) was 2460 ng·h/mL and the AUC(0-t) (plasma, po, 400 mg, Part 1, tazemetostat 400 mg oral single dose alone, Day 1, plasma, read-out: AUClast, GeoMean (CV%)) was 2640 ng·h/mL. For the same molecule, the AUC(0-t) (plasma, po, 400 mg, Part 1, tazemetostat 400 mg oral single dose alone, Day 1, plasma, read-out: AUClast, mean (SD)) was 3250 ng·h/mL, the Cmax (plasma, po, 400 mg, Part 1, tazemetostat 400 mg oral single dose alone, Day 1, plasma, read-out: Cmax, GeoMean (CV%)) was 704 ng/mL and the Cmax (plasma, po, 400 mg, Part 1, tazemetostat 400 mg oral single dose alone, Day 1, plasma, read-out: Cmax, mean (SD)) was 803 ng/mL. For the same molecule, the half-life (plasma, po, 400 mg, Part 1, tazemetostat 400 mg oral single dose alone, Day 1, plasma, read-out: t1/2, GeoMean (CV%) (converted)) was 5.97 h, the half-life (plasma, po, 400 mg, Part 1, tazemetostat 400 mg oral single dose alone, Day 1, plasma, read-out: t1/2, mean (SD) (converted)) was 6.13 h and the Tmax (plasma, po, 400 mg, Part 1, tazemetostat 400 mg oral single dose alone, Day 1, plasma) was 1.44 h. The “increase of tazemetostat exposure by itraconazole” value (overall, single dose and steady state) was “two to three times”, the “increase of mean AUC0‐12h by itraconazole” value [5] was 3.12 fold and the “increase of mean Cmax by itraconazole” value [5] was 2.00 fold. The “increase of mean steady‐state AUC0‐12h by itraconazole” value [6] was 2.47 fold and the “increase of mean steady‐state Cmax by itraconazole” value [6] was 1.86 fold.

Reference: paper PMC12209990, “Effect of Cytochrome P450 3A Inhibition and Induction by Itraconazole and Rifampin on Tazemetostat Pharmacokinetics in Patients With Advanced Malignancies” (Clinical Pharmacology in Drug Development, 2025)
